Experiments:
[1] = target: D(1A) dopamine receptor (Rattus norvegicus, UniProt P18901); assay: Binding affinity towards Dopamine receptor D1 in rat striatal tissue by [3H]-SCH- 23390 displacement.; type: tissue-based, Striatum
[2] = target: D(2) dopamine receptor (Rattus norvegicus, UniProt P61169); assay: Binding affinity towards Dopamine receptor D2 in rat striatal tissue by [3H]spiperone displacement.; type: tissue-based, Striatum
[3] = tested on: Rattus norvegicus; assay: Minimal dose producing reduction in avoidance responding after sc administration for 1 hr in rat; type: functional

Sequence of D(1A) dopamine receptor (P18901 whole entry): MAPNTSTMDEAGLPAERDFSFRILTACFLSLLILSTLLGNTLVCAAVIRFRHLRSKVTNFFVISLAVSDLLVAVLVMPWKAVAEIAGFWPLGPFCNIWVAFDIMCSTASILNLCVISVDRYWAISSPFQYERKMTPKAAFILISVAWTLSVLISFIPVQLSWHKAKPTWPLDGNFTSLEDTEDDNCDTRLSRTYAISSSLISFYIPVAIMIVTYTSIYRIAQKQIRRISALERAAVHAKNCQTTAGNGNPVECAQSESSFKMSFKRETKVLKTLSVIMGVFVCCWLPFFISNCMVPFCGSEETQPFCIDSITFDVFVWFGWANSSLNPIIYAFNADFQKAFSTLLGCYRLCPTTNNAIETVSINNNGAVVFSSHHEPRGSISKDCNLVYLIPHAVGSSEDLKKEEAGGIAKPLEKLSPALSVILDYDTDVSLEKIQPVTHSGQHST
Sequence of D(2) dopamine receptor (P61169 whole entry): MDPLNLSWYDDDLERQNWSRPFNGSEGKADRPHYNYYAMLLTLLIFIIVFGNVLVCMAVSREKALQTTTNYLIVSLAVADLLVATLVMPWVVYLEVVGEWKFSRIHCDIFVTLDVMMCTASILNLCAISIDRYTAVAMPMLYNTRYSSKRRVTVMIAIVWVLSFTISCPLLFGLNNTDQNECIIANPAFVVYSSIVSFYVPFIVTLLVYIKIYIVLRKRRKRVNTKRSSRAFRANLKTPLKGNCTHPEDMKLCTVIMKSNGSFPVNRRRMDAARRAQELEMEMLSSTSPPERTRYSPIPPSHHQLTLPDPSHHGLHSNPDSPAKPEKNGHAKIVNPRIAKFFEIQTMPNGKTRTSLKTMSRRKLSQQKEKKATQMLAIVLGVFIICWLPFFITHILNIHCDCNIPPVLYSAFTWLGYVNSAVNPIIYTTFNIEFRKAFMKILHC

SMILES	Ki [1]	Ki [2]	CAR [3]
C#CCC1CN(C)CCc2cc(Cl)c(O)cc21 (centres undefined)	8.7 nM	626 nM	1 MPK
CN1CCc2cc(Cl)c(O)cc2C(C2C=CC=CC=C2)C1 (centres undefined)	3.7 nM	1800 nM	0.1 MPK
CCOC1CN(C)CCc2cc(Cl)c(O)cc21 (centres undefined)	24 nM	> 10000 nM	1 MPK
CN1CCc2cc(Cl)c(O)cc2C(C2C=CCCC2)C1 (centres undefined)	2 nM	581 nM	0.3 MPK
CCCC1CN(C)CCc2cc(Cl)c(O)cc21 (centres undefined)	3.3 nM	1160 nM	0.3 MPK
CN1CCc2cc(Cl)c(O)cc2C(C2=CCCCC2)C1 (centres undefined)	2.1 nM	1600 nM	0.1 MPK
CN1CCc2cc(Cl)c(O)cc2C(N2CCCCC2)C1 (centres undefined)	100 nM	> 10000 nM	3 MPK
C=CCC1CN(C)CCc2cc(Cl)c(O)cc21 (centres undefined)	5.7 nM	284 nM	0.1 MPK
CN1CCc2cc(Cl)c(O)cc2C(C2CCCCCC2)C1 (centres undefined)	7.6 nM	1190 nM	1 MPK
CN1CCc2cc(Cl)c(O)cc2C2(CCCC2)C1	23 nM	2250 nM	1 MPK
CCSC1CN(C)CCc2cc(Cl)c(O)cc21 (centres undefined)	–	2710 nM	–
CN1CCc2cc(Cl)c(O)cc2C(C2CCCC2)C1 (centres undefined)	13 nM	2050 nM	1 MPK
CN1CCc2cc(O)c(Cl)cc2CC1	46 nM	265 nM	1 MPK
CN(C)CCCC1CN(C)CCc2cc(Cl)c(O)cc21 (centres undefined)	> 1000 nM	> 100000 nM	–
CN1CCc2cc(Cl)c(O)cc2C(C2=CCCC2)C1 (centres undefined)	5.1 nM	1540 nM	–
CN1CCc2cc(Cl)c(O)cc2C(C2CCCCC2)C1 (centres undefined)	–	1780 nM	0.3 MPK
CN1CCc2cc(Cl)c(O)cc2[C@@H](c2ccccc2)C1 [SCH-23390]	–	–	0.02 MPK
